Measured values as given in patent US11000033B2, “Ketone or oxime compound, and herbicide” (NISSAN CHEMICAL CORPORATION, priority 2014, dated 2021).

Columns and labels:
Type in all cases: in vivo
Abutilon theophrasti = assay: Test Example 4: herbicidal effect by soil treatment (symbol M)
Method in brief: (§1)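 Seeds were sown in sterilized diluvial soil, covered with about 1.5 cm of soil, and the soil surface was sprayed with a water-diluted emulsion of the compound at a predetermined rate. Plants grew in a greenhouse at 25° C. to 30° C.; effects were scored visually 3 weeks after application.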

wheat = assay: Test Example 5: effect on crop by foliage application, plastic box (symbol e); conditions: 3 weeks after application
Method in brief: (§2)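 In a plastic box 7 cm deep filled with sterilized diluvial soil, seeds of crops and weeds such as Digitaria ciliaris, Avena fatua and Amaranthus retroflexus are sown in spots and covered with about 1.5 cm of soil before greenhouse growth at 25–30° C.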

corn = assay: Test Example 5: effect on crop by foliage application, plastic box (symbol c); conditions: 3 weeks after application
Method in brief: as §2

transplanted rice plant = assay: Test Example 1: effect on crop, application before weed generation in submerged conditions (symbol a)
Method in brief: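 Alluvial soil pots flooded to 4 cm water, sown with Echinochloa oryzacola, Scirpus juncoides and Monochoria vaginalis, then transplanted with 2.5 leaf stage rice seedlings; pre-emergence application. Greenhouse 25° C. to 30° C.; scored 0–5 by herbicidal ratio 3 weeks after application.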

[1] = system: directly sowed rice plant; assay: Test Example 3: effect on crop by foliage application, Wagner pot (symbol b); conditions: for b (directly sowed rice plant) effect on crop grade: Table 24
Method in brief: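 Plants are raised from seed in flooded paddy conditions: water stands 0.1–0.5 cm over alluvial soil, and the pot is kept in a greenhouse at 25–30 °C. Species sown are barnyardgrass (E. crus-galli var. crus-galli), Leptochloa chinensis, Cyperus difformis and rice.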

Amaranthus retroflexus = assay: Test Example 4: herbicidal effect by soil treatment (symbol N)
Method in brief: as §1

beet = assay: Test Example 5: effect on crop by foliage application, plastic box (symbol f); conditions: 3 weeks after application
Method in brief: as §2

rapeseed = assay: Test Example 4: effect on crop by soil treatment (symbol g); conditions: for g: rapeseed, effect grade on crop: 320 g/ha
Method in brief: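 Grown at 25° C. to 30° C. in a greenhouse, the crops came from seed sown spot-wise in sterilized diluvial soil under roughly 1.5 cm of covering soil.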

Apera spica-venti = assay: Test Example 5: herbicidal effect by foliage application, plastic box (symbol L); conditions: 3 weeks after application
Method in brief: (§3)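 Effect is rated 3 weeks after a foliar spray of water-diluted emulsion concentrate at a predetermined herbicide amount. Plants had grown 14 days in a 25° C. to 30° C. greenhouse from seed in sterilized diluvial soil.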

Galium spurium = assay: Test Example 5: herbicidal effect by foliage application, plastic box (symbol Q); conditions: 3 weeks after application
Method in brief: as §3

Digitaria ciliaris = assay: Test Example 4: herbicidal effect by soil treatment (symbol F)
Method in brief: as §1

Monochoria vaginalis = assay: Test Example 1: herbicidal activity, application before weed generation in submerged conditions (symbol C)
Method in brief: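 Paddy pre-emergence test. Formulated emulsion, water-diluted to a predetermined rate, is applied to floodwater on sowing day; rice transplanted at 2.5 leaves. Effect read at 3 weeks on a 0–5 herbicidal-ratio scale.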

Leptochloa chinensis = assay: Test Example 3: herbicidal effect by foliage application, Wagner pot (symbol D); conditions: for D (Leptochloa chinensis) herbicidal effect grade: Table 24
Method in brief: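 Steps: fill pot with alluvial soil; add water to 0.1–0.5 cm depth; sow weed and rice seed; grow 14 days at 25–30 °C; spray diluted emulsion over the leaves; rate effect after 3 weeks.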

[2] = application herbicide amount 320 g/ha
[3] = application herbicide amount 269 g/ha

SMILES: CCC(=O)CC1CC(O)=C(c2c(C)cc(Br)cc2OC)C1=O (racemic) [14-002]
- M: Abutilon theophrasti, herbicidal effect grade (Abutilon theophrasti; [2]): 0 (Herbicidal ratio of 5% or lower (almost no effect))
- e: wheat, effect on crop grade (wheat; 320 g/ha): 3 (Herbicidal ratio of 40% or higher and lower than 70%)
- c: corn, effect on crop grade (corn; 320 g/ha): 5 (Herbicidal ratio of 90% or more (almost completely withered))
- a (transplanted rice plant) effect on crop grade (transplanted rice plant; [2]): 2 (Herbicidal ratio of 20% or higher and lower than 40%)
- b (directly sowed rice plant) effect on crop grade [1, 2]: 5 (Herbicidal ratio of 90% or more (almost completely withered))
- N: Amaranthus retroflexus, herbicidal effect grade (Amaranthus retroflexus; [2]): 0 (Herbicidal ratio of 5% or lower (almost no effect))
- f: beet, effect on crop grade (beet; 320 g/ha): 0 (Herbicidal ratio of 5% or lower (almost no effect))
- g: rapeseed, effect on crop grade (rapeseed; [2]): 0 (Herbicidal ratio of 5% or lower (almost no effect))
- L: Apera spica-venti, herbicidal effect grade (Apera spica-venti; 320 g/ha): 5 (Herbicidal ratio of 90% or more (almost completely withered))
- Q: Galium spurium, herbicidal effect grade (Galium spurium; 320 g/ha): 0 (Herbicidal ratio of 5% or lower (almost no effect))
- F: Digitaria ciliaris, herbicidal effect grade (Digitaria ciliaris; [2]): 5 (Herbicidal ratio of 90% or more (almost completely withered))
- C (Monochoria vaginalis) herbicidal effect grade (Monochoria vaginalis; [2]): 2 (Herbicidal ratio of 20% or higher and lower than 40%)
- D (Leptochloa chinensis) herbicidal effect grade (Leptochloa chinensis; [2]): 5 (Herbicidal ratio of 90% or more (almost completely withered))

SMILES: CC(=O)C(C)C1CC(O)=C(c2c(C)cc(C)cc2C)C1=O (centres unmarked) [2-005]
- M: Abutilon theophrasti, herbicidal effect grade (Abutilon theophrasti; [3]): 0 (Herbicidal ratio of 5% or lower (almost no effect))
- e: wheat, effect on crop grade (wheat; 269 g/ha): 0 (Herbicidal ratio of 5% or lower (almost no effect))
- c: corn, effect on crop grade (corn; 269 g/ha): 3 (Herbicidal ratio of 40% or higher and lower than 70%)
- Effect grade on crop, a: transplanted rice plant (transplanted rice plant; [3]): 4 (Herbicidal ratio of 70% or higher and lower than 90%)
- effect on crop b (directly sowed rice plant), grade 0-5 [1, 3]: 5 (Herbicidal ratio of 90% or more (almost completely withered))
- N: Amaranthus retroflexus, herbicidal effect grade (Amaranthus retroflexus; [3]): 0 (Herbicidal ratio of 5% or lower (almost no effect))
- f: beet, effect on crop grade (beet; 269 g/ha): 2 (Herbicidal ratio of 20% or higher and lower than 40%)
- g: rapeseed, effect on crop grade (rapeseed; [3]): 4 (Herbicidal ratio of 70% or higher and lower than 90%)
- L: Apera spica-venti, herbicidal effect grade (Apera spica-venti; 269 g/ha): 3 (Herbicidal ratio of 40% or higher and lower than 70%)
- Q: Galium spurium, herbicidal effect grade (Galium spurium; 269 g/ha): 0 (Herbicidal ratio of 5% or lower (almost no effect))
- F: Digitaria ciliaris, herbicidal effect grade (Digitaria ciliaris; [3]): 5 (Herbicidal ratio of 90% or more (almost completely withered))
- Herbicidal effect grade, C: Monochoria vaginalis (Monochoria vaginalis; [3]): 0 (Herbicidal ratio of 5% or lower (almost no effect))
- herbicidal effect on D (Leptochloa chinensis), grade 0-5 (Leptochloa chinensis; [3]): 5 (Herbicidal ratio of 90% or more (almost completely withered))

SMILES: CC(CC1CC(O)=C(c2c(C)cc(-c3ccc(Cl)cc3)cc2C)C1=O)=NOCC(F)(F)F (centres unmarked) [9-024]
- Herbicidal effect grade, M: Abutilon theophrasti (Abutilon theophrasti; [2]): 0 (Herbicidal ratio of 5% or lower (almost no effect))
- e: wheat, effect on crop grade (wheat; 320 g/ha): 3 (Herbicidal ratio of 40% or higher and lower than 70%)
- c: corn, effect on crop grade (corn; 320 g/ha): 5 (Herbicidal ratio of 90% or more (almost completely withered))
- a (transplanted rice plant) effect on crop grade (transplanted rice plant; [2]): 5 (Herbicidal ratio of 90% or more (almost completely withered))
- b (directly sowed rice plant) effect on crop grade [1, 2]: 5 (Herbicidal ratio of 90% or more (almost completely withered))
- Herbicidal effect grade, N: Amaranthus retroflexus (Amaranthus retroflexus; [2]): 3 (Herbicidal ratio of 40% or higher and lower than 70%)
- f: beet, effect on crop grade (beet; 320 g/ha): 0 (Herbicidal ratio of 5% or lower (almost no effect))
- Effect on crop grade, g: rapeseed (rapeseed; [2]): 0 (Herbicidal ratio of 5% or lower (almost no effect))
- L: Apera spica-venti, herbicidal effect grade (Apera spica-venti; 320 g/ha): 5 (Herbicidal ratio of 90% or more (almost completely withered))
- Q: Galium spurium, herbicidal effect grade (Galium spurium; 320 g/ha): 4 (Herbicidal ratio of 70% or higher and lower than 90%)
- Herbicidal effect grade, F: Digitaria ciliaris (Digitaria ciliaris; [2]): 5 (Herbicidal ratio of 90% or more (almost completely withered))
- C (Monochoria vaginalis) herbicidal effect grade (Monochoria vaginalis; [2]): 2 (Herbicidal ratio of 20% or higher and lower than 40%)
- D (Leptochloa chinensis) herbicidal effect grade (Leptochloa chinensis; [2]): 5 (Herbicidal ratio of 90% or more (almost completely withered))

SMILES: CON=C(C)CC1CC(OC(=O)c2nc(C)sc2C)=C(c2c(C)cc(C)cc2C)C1=O (centres unmarked) [1-101]
- M: Abutilon theophrasti, herbicidal effect grade (Abutilon theophrasti; 320 g/ha): 5 (Herbicidal ratio of 90% or more (almost completely withered))
- e: wheat, effect on crop (criteria 0-5) (wheat; 320 g/ha): 5 (Herbicidal ratio of 90% or more (almost completely withered))
- c: corn, effect on crop (criteria 0-5) (corn; 320 g/ha): 5 (Herbicidal ratio of 90% or more (almost completely withered))
- Effect grade on crop, a: transplanted rice plant (transplanted rice plant; [2]): 5 (Herbicidal ratio of 90% or more (almost completely withered))
- effect on crop b (directly sowed rice plant), grade 0-5 [1, 2]: 5 (Herbicidal ratio of 90% or more (almost completely withered))
- N: Amaranthus retroflexus, herbicidal effect grade (Amaranthus retroflexus; 320 g/ha): 3 (Herbicidal ratio of 40% or higher and lower than 70%)
- f: beet, effect on crop (criteria 0-5) (beet; 320 g/ha): 0 (Herbicidal ratio of 5% or lower (almost no effect))
- g: rapeseed, effect grade on crop (rapeseed): 5 (Herbicidal ratio of 90% or more (almost completely withered))
- L: Apera spica-venti, herbicidal effect (criteria 0-5) (Apera spica-venti; 320 g/ha): 5 (Herbicidal ratio of 90% or more (almost completely withered))
- Q: Galium spurium, herbicidal effect (criteria 0-5) (Galium spurium; 320 g/ha): 0 (Herbicidal ratio of 5% or lower (almost no effect))
- F: Digitaria ciliaris, herbicidal effect grade (Digitaria ciliaris; 320 g/ha): 5 (Herbicidal ratio of 90% or more (almost completely withered))
- Herbicidal effect grade, C: Monochoria vaginalis (Monochoria vaginalis; [2]): 2 (Herbicidal ratio of 20% or higher and lower than 40%)
- herbicidal effect on D (Leptochloa chinensis), grade 0-5 (Leptochloa chinensis; [2]): 5 (Herbicidal ratio of 90% or more (almost completely withered))

SMILES: CON=C(CC1CC(O)=C(c2c(C)cc(C)cc2C)C1=O)c1ccc(F)cc1 (centres unmarked) [1-133]
- M: Abutilon theophrasti, herbicidal effect grade (Abutilon theophrasti; 320 g/ha): 0 (Herbicidal ratio of 5% or lower (almost no effect))
- e: wheat, effect on crop (criteria 0-5) (wheat; 320 g/ha): 0 (Herbicidal ratio of 5% or lower (almost no effect))
- c: corn, effect on crop (criteria 0-5) (corn; 320 g/ha): 0 (Herbicidal ratio of 5% or lower (almost no effect))
- Effect grade on crop, a: transplanted rice plant (transplanted rice plant; [2]): 1 (Herbicidal ratio of 5% or higher and lower than 20%)
- effect on crop b (directly sowed rice plant), grade 0-5 [1, 2]: 0 (Herbicidal ratio of 5% or lower (almost no effect))
- N: Amaranthus retroflexus, herbicidal effect grade (Amaranthus retroflexus; 320 g/ha): 0 (Herbicidal ratio of 5% or lower (almost no effect))
- f: beet, effect on crop (criteria 0-5) (beet; 320 g/ha): 3 (Herbicidal ratio of 40% or higher and lower than 70%)
- g: rapeseed, effect grade on crop (rapeseed): 0 (Herbicidal ratio of 5% or lower (almost no effect))
- L: Apera spica-venti, herbicidal effect (criteria 0-5) (Apera spica-venti; 320 g/ha): 2 (Herbicidal ratio of 20% or higher and lower than 40%)
- Q: Galium spurium, herbicidal effect (criteria 0-5) (Galium spurium; 320 g/ha): 0 (Herbicidal ratio of 5% or lower (almost no effect))
- F: Digitaria ciliaris, herbicidal effect grade (Digitaria ciliaris; 320 g/ha): 4 (Herbicidal ratio of 70% or higher and lower than 90%)
- Herbicidal effect grade, C: Monochoria vaginalis (Monochoria vaginalis; [2]): 0 (Herbicidal ratio of 5% or lower (almost no effect))
- herbicidal effect on D (Leptochloa chinensis), grade 0-5 (Leptochloa chinensis; [2]): 0 (Herbicidal ratio of 5% or lower (almost no effect))
